Consider one compound from publication PMC6724510 (Molecular Biology of the Cell, 2019).

This assay deals with T1, Spf1p (Saccharomyces cerevisiae, UniProt P39986).
T1 sequence (P39986 1-1215): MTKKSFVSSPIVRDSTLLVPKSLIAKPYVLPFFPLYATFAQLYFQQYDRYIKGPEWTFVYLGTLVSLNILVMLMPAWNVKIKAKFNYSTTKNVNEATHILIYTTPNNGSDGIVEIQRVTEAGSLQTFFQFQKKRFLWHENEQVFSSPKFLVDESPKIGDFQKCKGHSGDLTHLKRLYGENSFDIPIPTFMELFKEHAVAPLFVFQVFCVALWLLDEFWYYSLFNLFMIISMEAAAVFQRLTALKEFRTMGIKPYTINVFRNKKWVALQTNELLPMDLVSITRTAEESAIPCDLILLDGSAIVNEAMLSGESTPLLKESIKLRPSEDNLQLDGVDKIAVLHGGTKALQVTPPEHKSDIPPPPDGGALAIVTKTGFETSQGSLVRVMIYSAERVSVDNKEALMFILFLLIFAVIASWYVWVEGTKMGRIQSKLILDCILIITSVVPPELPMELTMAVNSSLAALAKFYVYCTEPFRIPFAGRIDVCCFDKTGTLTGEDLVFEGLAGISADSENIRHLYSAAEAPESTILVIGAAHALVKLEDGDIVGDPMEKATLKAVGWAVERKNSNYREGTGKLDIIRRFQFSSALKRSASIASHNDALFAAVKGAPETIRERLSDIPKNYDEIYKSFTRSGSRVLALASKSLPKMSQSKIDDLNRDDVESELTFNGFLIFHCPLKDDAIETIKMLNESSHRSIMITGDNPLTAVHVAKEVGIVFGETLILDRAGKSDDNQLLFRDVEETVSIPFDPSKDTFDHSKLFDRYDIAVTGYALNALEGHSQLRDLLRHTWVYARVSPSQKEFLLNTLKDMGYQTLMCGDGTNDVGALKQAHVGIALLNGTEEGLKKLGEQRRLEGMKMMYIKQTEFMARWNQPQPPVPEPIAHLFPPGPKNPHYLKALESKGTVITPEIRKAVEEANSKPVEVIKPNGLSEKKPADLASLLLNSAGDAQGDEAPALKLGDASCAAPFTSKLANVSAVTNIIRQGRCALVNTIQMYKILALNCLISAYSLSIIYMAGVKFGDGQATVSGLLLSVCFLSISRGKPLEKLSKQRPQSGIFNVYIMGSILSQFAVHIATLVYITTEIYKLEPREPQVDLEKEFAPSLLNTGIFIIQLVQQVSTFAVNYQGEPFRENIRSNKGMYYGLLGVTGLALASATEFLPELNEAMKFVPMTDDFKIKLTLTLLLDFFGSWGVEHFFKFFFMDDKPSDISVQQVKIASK
Description: inhibition of ATP hydrolysis by purified Spf1p. In kind it is biochemical.

As for `[O]=[V]([OH])([OH])[OH]` [vanadate], the affinity, expressed as Ki, was 9.8 ± 2.4 µM.
